Like-named read-outs stand apart in the source and are kept apart here.
Legend:
[1] = test system: Corynebacterium glutamicum ATCC13032; assay: Bacterial growth in microscale cultivation, C. glutamicum; format: cell-based; conditions: relative to control; for activity at 0.3 µM / activity at 3 µM / activity at 30 µM: Corynebacterium glutamicum
Description: (§1) The following bacteria were cultivated in the presence of trans-chalcone derived inhibitors: Corynebacterium glutamicum ATCC13032[43], Escherichia coli K-12 MG1655[44], Pseudomonas putida KT2440[45], and Bacillus subtilis 168[46]. The growth of these bacteria was monitored in flower-well plates shaken at 1200 rpm as backscatter at 620 nm (gain 20) using a BioLector® microscale cultivation system (m2p labs, Baesweiler, Germany). For further experimental details please refer to the Supplementary Information.
(§2) medium or the appropriate minimal medium and shaken at 140 rpm overnight. For inoculation of
(§3) the main culture, cells equivalent to an optical density at 600 nm of 0.5 (C. glutamicum, E. coli,
(§4) and P. putida) or 0.25 (B. subtilis) in 800 µL medium were washed and resuspended in fresh
(§5) media. Inhibitor substances were dissolved in DMSO and added to the media to a final
(§6) Since the least polar trans-chalcone and 2’-hydroxychalcone precipitated in the growth media at
(§7) the highest concentrations, the maximal concentration of these compounds was reduced to 400
(§8) µM and 100 µM, respectively. The final backscatter at 620 nm, the growth rate (h-1), and the
(§9) duration of the lag phase of all cultures were determined in a BioLector microscale cultivation
(§10) system in comparison to negative controls supplemented with the solvent DMSO. A longer lag

[2] = test system: Amaranthus retroflexus; assay: In planta growth experiment, A. retroflexus; format: in vivo; conditions: shoots sprayed, 3 mM
Source text: Seeds of Amaranthus retroflexus L. (Herbiseed, Twyford, UK) and Brassica napus L. cv. Mozart (Norddeutsche Pflanzenzucht Hans-Georg Lembke KG, Holtsee, Germany) were sown in vermiculite for germination. When cotyledons were fully expanded, seedlings were transplanted into plastic pots with a volume of 0.230 L filled with a substrate containing 50% bottom ash (0–4 mm), 30% peat and 20% pumice gravel (0–4 mm). Plants were watered every other day with 0.03% Hakaphos® Grün solution (Compo Expert GmbH, Münster, Germany) by sub-irrigation. Plants were grown in a climate chamber at 22 °C/20 °C day/night temperature and a day/night length of 16 h/8 h. Relative humidity was adjusted to 70% and light intensity was 320 μmol m^−2 s^−1 PAR (Photosynthetically Active Radiation) at plant level.
When seedlings reached the two-leaf growth stage, plant shoots were sprayed from the top with treatment solutions using spray bottles with a spraying angle of 35° (10 ml, neoLab Migge Laborbedarf-Vertriebs GmbH, Heidelberg, Germany). Treatment solutions were applied from a height of 8.5 cm above the pots. Each pot was sprayed once with a solution volume of 0.135 ml. Treatment solutions contained 2.4% (v/v) DMSO (dimethylsulfoxide, Duchefa Biochemie, Haarlem, the Netherlands), 0.1% (v/v) Tween® and the respective compound at a concentration of 3 mM. The control treatment contained 2.4% (v/v) DMSO, and 0.1% (v/v) Tween20. Further details are given in the Supplementary Information. […]
Experimental design and assessments of in planta experiments
We tested eleven compounds in a first experiment. In a follow-up experiment we tested selected […]
chalcone. Each treatment was repeated 12 times, except for oilseed rape in the second experiment (n=10). Pots were arranged in the growth chamber according to a fully randomized design. Initial growth of the second leaf of A. retroflexus plants was monitored by aquiring images of each plant from above from day zero to day two after treatment. Images were taken […]
from a fixed distance at 90° view angle using the camera Canon EOS 70D equipped with a Canon EF 14 mm/2.8 L II USM lens. Leaf area of single leaves was measured using the ImageJ software31, by drawing the leaf contours using a drawing tablet (Cintiq 22HD, Wacom Europe GmbH, Krefeld, Germany). Conversion of pixel to cm was achieved by using a target of known size inside the image. Six days after the treatment, half of the plants were harvested. Leaf area was assessed using a leaf area meter (LI3100C Area Meter, LI-Cor, Lincoln, Nebraska, USA) and samples were oven-dried at 65°C for seven days to obtain dry weight . Thirteen days after the treatment, this procedure was repeated with the second half of plants.
Chlorophyll fluorescence measurements […]
6 mm leaf discs were cut out of the second leaf and immediately placed into 96-well-plates filled with 300 µL 0.125 % Hoagland’s solution with 1 mM MES-KOH (MES-monohydrate, Merck, Darmstadt, Germany) buffered to a pH of 6.5. The treatment solution contained 1.6 % (v/v) DMSO, 0.1 % (v/v) Tween® 20 and 2',3',4',3,4-Pentahydroxychalcone at a concentration of 2 mM. The control treatment contained 1.6 % (v/v) DMSO, 0.1 % (v/v) Tween® 20. Each leaf disc was treated with 1.5 µL solution placed on top of the leaf discs. Plates were sealed with Parafilm and placed into a climate cabinet with 12h/12h day/night-length and a temperature of 22°C at a light intensity of 130 µmol m-2 s-1. 96 hours after treatment, chlorophyll fluorescence measurements were performed on leaf discs using an Imaging PAM M-Series fluorescence camera (Heinz Walz GmbH, Effeltrich, Germany). Leaf discs were dark adapted for 30 minutes, minimum and maximum chlorophyll fluorescence were obtained and leaf discs were illuminated for 30 minutes

[3] = test system: Escherichia coli K-12 MG1655; assay: Bacterial growth in microscale cultivation, E. coli; format: cell-based; conditions: relative to control; for activity at 0.3 µM / activity at 3 µM / activity at 30 µM: Escherichia coli
Description: as §1, §2, §3, §4, §5, §6, §7, §8, §9, §10

O=C(/C=C/c1ccc(O)c(O)c1)c1c(O)cc(O)cc1O [Compound 11, 2′,4′,6′,3,4-Pentahydroxy-chalcone]
activity at 0.3 µM ([1]; ATCC13032, complex medium, 0.3 µM, read-out: Final Backscatter): 99.6% | activity at 0.3 µM ([1]; ATCC13032, complex medium, 0.3 µM, read-out: Growth rate): 94.6% | activity at 3 µM ([1]; ATCC13032, complex medium, 3 µM, read-out: Final Backscatter): 103% | activity at 3 µM ([1]; ATCC13032, complex medium, 3 µM, read-out: Growth rate): 104% | activity at 30 µM ([1]; ATCC13032, complex medium, 30 µM, read-out: Final Backscatter): 103% | activity at 30 µM ([1]; ATCC13032, complex medium, 30 µM, read-out: Growth rate): 95.3% | activity at 0.3 µM ([1]; ATCC13032, minimal medium, 0.3 µM, read-out: Final Backscatter): 100% | activity at 0.3 µM ([1]; ATCC13032, minimal medium, 0.3 µM, read-out: Growth rate): 104% | activity at 3 µM ([1]; ATCC13032, minimal medium, 3 µM, read-out: Final Backscatter): 95.1% | activity at 3 µM ([1]; ATCC13032, minimal medium, 3 µM, read-out: Growth rate): 105% | activity at 30 µM ([1]; ATCC13032, minimal medium, 30 µM, read-out: Final Backscatter): 96.2% | activity at 30 µM ([1]; ATCC13032, minimal medium, 30 µM, read-out: Growth rate): 104% | Lag Phase ([1]; complex medium, 0.3 µM): 97,0% | Lag Phase ([1]; complex medium, 3 µM): 97,0% | Lag Phase ([1]; complex medium, 30 µM): 98,5% | Lag Phase ([1]; minimal medium, 0.3 µM): 99,3% | Lag Phase ([1]; minimal medium, 3 µM): 98,5% | Lag Phase ([1]; minimal medium, 30 µM): 98,5% | Influence on plants [2]: No | activity at 0.3 µM ([3]; MG1655, complex medium, 0.3 µM, read-out: Final Backscatter): 98% | activity at 0.3 µM ([3]; MG1655, complex medium, 0.3 µM, read-out: Growth rate): 104% | activity at 3 µM ([3]; MG1655, complex medium, 3 µM, read-out: Final Backscatter): 98.1% | activity at 3 µM ([3]; MG1655, complex medium, 3 µM, read-out: Growth rate): 106% | activity at 30 µM ([3]; MG1655, complex medium, 30 µM, read-out: Final Backscatter): 96.9% | activity at 30 µM ([3]; MG1655, complex medium, 30 µM, read-out: Growth rate): 104% | activity at 0.3 µM ([3]; MG1655, minimal medium, 0.3 µM, read-out: Final Backscatter): 98% | activity at 0.3 µM ([3]; MG1655, minimal medium, 0.3 µM, read-out: Growth rate): 107% | activity at 3 µM ([3]; MG1655, minimal medium, 3 µM, read-out: Final Backscatter): 98.7% | activity at 3 µM ([3]; MG1655, minimal medium, 3 µM, read-out: Growth rate): 109% | activity at 30 µM ([3]; MG1655, minimal medium, 30 µM, read-out: Final Backscatter): 97.9% | activity at 30 µM ([3]; MG1655, minimal medium, 30 µM, read-out: Growth rate): 107% | Lag Phase ([3]; complex medium, 0.3 µM): 107,1% | Lag Phase ([3]; complex medium, 3 µM): 107,1% | Lag Phase ([3]; complex medium, 30 µM): 107,1% | Lag Phase ([3]; minimal medium, 0.3 µM): 103,4% | Lag Phase ([3]; minimal medium, 3 µM): 101,7% | Lag Phase ([3]; minimal medium, 30 µM): 103,4%
